Laboratory results from publication PMC7954794, “Protein context shapes the specificity of SH3 domain-mediated interactions in vivo” (Nature Communications, 2021).

System: growth of yeast strains under 51 stress conditions
Experiment: Growth assays in 51 stress conditions (Fig. 1E-F, S2D, S5B)
Assay type: cell-based, Saccharomyces cerevisiae
Design: key to Growth (Fig. S2D) / growth of ABP1 SH3-swapped strains in stress condition: log2 colony size, average of median per strain (growth score)
Settings: ABP1 SH3-swapped strains
Procedure: All WT, SH3-deleted, KO (except for CDC25 which is the only essential SH3-containing gene in yeast), ABP1 SH3-swapped, and SLA1 SH3-shuffled strains were grown on omnitrays in 1536 formats and robotically manipulated with a pin tool (the DHFR F[1,2] bait strains were used except for the KO strains). Each strain was randomly positioned in 6 replicates per plate and two plates per condition were performed, for 12 replicates per strain in total. A border of two rows and two columns of WT strains (BY4741) around the plate was used to remove border effects. Strains were grown on YPD media for two days at 30 °C. They were then replicated on 51 different media that are described in the Supplementary Table 3 and were incubated at 37 °C in a spImager custom platform with images acquired every two hours for four days. The colony sizes from plate pictures were also measured with the R package “Gitter” and the output was manually inspected. Positions with an abnormality in colony circularity were removed. The colony sizes after 74 h of incubation at 37 °C were log2 transformed and used for the analyses. First, the differences between the two plate replicates were corrected to remove plate effects. The median colony size was calculated for each strain per plate. Strains with a difference in their median colony size of more than two between the two plate replicates were removed. Finally, the average of the median colony size was calculated for each strain per condition (growth score).

CDC25
Growth (Fig. S2D) (Bathophenanthroline.0.1uM): 10.8311
Growth (Fig. S2D) (Bathophenanthroline.10uM): 10.71
Growth (Fig. S2D) (Bathophenanthroline.1uM): 10.807
Growth (Fig. S2D) (CaCl2.100mM): 10.8749
Growth (Fig. S2D) (CaCl2.250mM): 10.774
Growth (Fig. S2D) (CaCl2.500mM): 10.2891
Growth (Fig. S2D) (Caffein.10mM): 10.1016
Growth (Fig. S2D) (Caffein.2mM): 11.0786
Growth (Fig. S2D) (CdCl2.100uM): 9.608
Growth (Fig. S2D) (CdCl2.10uM): 10.8752
Growth (Fig. S2D) (CdCl2.50uM): 9.913
Growth (Fig. S2D) (CuSO4.1mM): 10.4484
Growth (Fig. S2D) (CuSO4.5mM): 7.922
Growth (Fig. S2D) (Cycloheximide.0.05.uM): 11.0566
Growth (Fig. S2D) (Cycloheximide.0.2.uM): 10.636
Growth (Fig. S2D) (Cycloheximide.0.5.uM): 10.117
Growth (Fig. S2D) (DMSO.2.): 11.0377
Growth (Fig. S2D) (DMSO.6.): 9.934
Growth (Fig. S2D) (DMSO.8.): 9.291
Growth (Fig. S2D) (Ethanol.2.): 10.7941
Growth (Fig. S2D) (Ethanol.6.): 10.2979
Growth (Fig. S2D) (Ethanol.8.): 10.0965
Growth (Fig. S2D) (Galactose.2.): 10.7721
Growth (Fig. S2D) (Glycerol.2.): 9.727
Growth (Fig. S2D) (Hydroxyurea.25mM): 10.7845
Growth (Fig. S2D) (Hygromycin.190uM): 10.9998
Growth (Fig. S2D) (Hygromycin.19uM): 11.0292
Growth (Fig. S2D) (Hygromycin.95uM): 11.0306
Growth (Fig. S2D) (MMS.0.004.): 10.9713
Growth (Fig. S2D) (MMS.0.02.): 10.7211
Growth (Fig. S2D) (MMS.0.04.): 9.98
Growth (Fig. S2D) (Menadione.100uM): 10.5959
Growth (Fig. S2D) (Menadione.200uM): 10.4955
Growth (Fig. S2D) (Menadione.50uM): 10.8366
Growth (Fig. S2D) (NaCl.0.25M): 10.7898
Growth (Fig. S2D) (NaCl.1M): 9.773
Growth (Fig. S2D) (Nitroquinoline.10uM): 10.6639
Growth (Fig. S2D) (Nitroquinoline.50uM): 10.6019
Growth (Fig. S2D) (Nystatin.0.01uM): 11.0504
Growth (Fig. S2D) (Nystatin.0.1uM): 11.1
Growth (Fig. S2D) (Raffinose.2.): 11.0411
Growth (Fig. S2D) (Rapamycin.10nM): 9.922
Growth (Fig. S2D) (Rapamycin.50nM): 9.425
Growth (Fig. S2D) (SC.pH3): 10.4587
Growth (Fig. S2D) (SC.pH6): 11.0388
Growth (Fig. S2D) (SDS.0.01.): 11.0329
Growth (Fig. S2D) (SDS.0.02.): 11.0194
Growth (Fig. S2D) (SDS.0.05.): 10.8768
Growth (Fig. S2D) (Sorbitol.10mM): 11.0003
Growth (Fig. S2D) (Sorbitol.1mM): 11.0466
Growth (Fig. S2D) (Sorbitol.5mM): 10.9359
